The record followed here is patent US4153692A, “Acylated imidazolyl-O,N-acetals, their pharmaceutically acceptable salts and metal complexes” (Bayer Aktiengesellschaft, priority 1976, dated 1979).

Values after ≈ are worked out from the molar mass of the structure shown.

For one assay, the system named is Aspergillus niger. Description: Antimycotic in vitro activity (series dilution test, MIC). As to conditions: Sabouraud's milieu d'epreuve, 28° C., 24 to 96 hours, 5 × 10^4 germs/ml, read-out: MIC values in γ/ml of nutrient medium with Aspergillus niger. Type of assay: cell-based. On the procedure: (§1) Antimycotic in vitro activity Description of the experiment The in vitro tests were carried out in a series dilution test using germ inocula with an average of 5 × 10^4 germs/ml of substrate. The nutrient medium used was a) for dermatophytes and molds: Sabouraud's milieu d'epreuve and b) for yeasts: meat extract/glucose broth. The incubation temperature was 28° C. and the incubation time was 24 to 96 hours.

The next assay concerns Penicillium commune. Described as above. The class given is cell-based. As to conditions: Sabouraud's milieu d'epreuve, 28° C., 24 to 96 hours, 5 × 10^4 germs/ml, read-out: MIC values in γ/ml of nutrient medium with Penicillium commune. On the procedure: as §1
The subject of a further assay is Microsporum felinum. The description is as above. The class given is cell-based. As to conditions: Sabouraud's milieu d'epreuve, 28° C., 24 to 96 hours, 5 × 10^4 germs/ml, read-out: MIC values in γ/ml of nutrient medium with Microsporum felinum. The protocol:
as §1

For assay [1], the system named is Trichophyton mentagrophytes. Described as above. The class given is cell-based. As to conditions: Sabouraud's milieu d'epreuve, 28° C., 24 to 96 hours, 5 × 10^4 germs/ml, read-out: MIC values in γ/ml of nutrient medium with Trichophyton mentagrophytes. On the procedure: as §1
A further assay concerns Candida albicans. Described as above. The class given is cell-based. To be noted: meat extract/glucose broth, 28° C., 24 to 96 hours, 5 × 10^4 germs/ml, read-out: MIC values in γ/ml of nutrient medium with Candida albicans. The protocol:
as §1

In the next assay the test system is Candida cells. Description: Antimycotic in vivo activity on candidosis in mice. Set-up: species or system mice of the SPF-CF1 type. As to conditions: mice infected i.v. with Candida; 100 mg/kg orally one hour before and seven hours after infection; untreated survival about 5%. On the procedure: antimycotic in vivo activity on candidosis in mice Description of the experiment Mice of the SPF-CF1 type were infected intravenously with 1-2 × 10^6 logarithmically-growing Candida cells, which were suspended in physiological sodium chloride solution. One hour before and seven hours after the infection the animals were treated orally with, in each case, 100 mg of the formulations per kg of body weight. Untreated animals died of the infection 3 to 6 days after infection. The survival rate on the 6th day after infection was about 5% in the case of the untreated control animals

In the case of `CC(=O)OC(C(Oc1ccc(Br)cc1)n1ccnc1)C(C)(C)C` (stereo not shown) [drawing 9], the MIC in the assay on Aspergillus niger was found to be 64 µg/mL (≈ 168 µM); in the assay on Penicillium commune, 32 µg/mL (≈ 83.9 µM); in the assay with Microsporum felinum, 32 µg/mL (≈ 83.9 µM); in assay [1] it was 4 µg/mL (≈ 10.5 µM); in the assay on Candida albicans it was 64 µg/mL (≈ 168 µM).
In the case of `CC(=O)OC(C(Oc1ccccc1)n1ccnc1)C(C)(C)C` (stereo not shown), the “Action (survivors on the 6th day after infection)” value (shortened to “Action”) with Candida cells is given as “++ (weak action = ≥ 40% survivors on the 6th day after infection)”.
Take `CC(=O)OC(C(Oc1ccc(-c2ccc(Cl)cc2)cc1)n1ccnc1)C(C)(C)C` (stereo not shown) [drawing 11]: the MIC is 64 µg/mL (≈ 155 µM) in the assay on Aspergillus niger; 64 µg/mL (≈ 155 µM) in the assay on Penicillium commune; 32 µg/mL (≈ 77.5 µM) with Microsporum felinum; < 1 µg/mL in assay [1]; 32 µg/mL (≈ 77.5 µM) with Candida albicans.
Consider `CC(C)(C)c1ccc(OC(C(O)C(C)(C)C)n2ccnc2)cc1` (stereo not shown), for which the MIC was > 64 µg/mL in the assay on Penicillium commune, 32 µg/mL (≈ 101 µM) in assay [1] and 64 µg/mL (≈ 202 µM) with Candida albicans.
On to `CC(=O)OC(C(Oc1ccc(F)cc1)n1ccnc1)C(C)(C)C` (stereo not shown), for which the “Action” value in the assay with Candida cells is “+++ (action = ≥ 60% survivors on the 6th day after infection)”.
In the case of `CC(C)(C)C(O)C(Oc1ccccc1)n1ccnc1` (stereo not shown), the MIC is > 64 µg/mL in the assay with Aspergillus niger; > 64 µg/mL in the assay on Penicillium commune; > 64 µg/mL in the assay on Microsporum felinum; 32 µg/mL (≈ 123 µM) in assay [1]; 32 µg/mL (≈ 123 µM) in the assay with Candida albicans.
With `CC(=O)OC(C(Oc1ccc(C2CCCCC2)cc1)n1ccnc1)C(C)(C)C` (stereo not shown), the MIC is 32 µg/mL (≈ 83.2 µM) in the assay with Penicillium commune, 8 µg/mL (≈ 20.8 µM) in assay [1] and 64 µg/mL (≈ 166 µM) in the assay with Candida albicans.
`CC(=O)OC(C(Oc1ccc(Cl)cc1)n1ccnc1)C(C)(C)C` (stereo not shown) [drawing 15]: the “Action” value in the assay on Candida cells is on record as “++++ (good action = ≥ 80% survivors on the 6th day after infectio)”.
On to `CC(=O)OC(C(Oc1ccc(Cl)cc1)n1ccnc1)C(C)(C)C` (stereo not shown) [drawing 7], for which the MIC in the assay on Aspergillus niger came out at 64 µg/mL (≈ 190 µM); in the assay on Penicillium commune it was 32 µg/mL (≈ 95 µM); with Microsporum felinum, 32 µg/mL (≈ 95 µM); in assay [1], 4 µg/mL (≈ 11.9 µM); in the assay with Candida albicans, 32 µg/mL (≈ 95 µM).
With `CC(=O)OC(C(Oc1ccc(-c2ccc(Cl)cc2)cc1)n1ccnc1)C(C)(C)C` (stereo not shown) [drawing 18], in the assay with Candida cells, the “Action” value is “++++ (good action = ≥ 80% survivors on the 6th day after infectio)”.
On to `CC(=O)OC(C(Oc1ccc(-c2ccccc2)cc1)n1ccnc1)C(C)(C)C` (stereo not shown), for which the MIC was < 1 µg/mL in the assay with Aspergillus niger; 8 µg/mL (≈ 21.1 µM) with Penicillium commune; 8 µg/mL (≈ 21.1 µM) in the assay with Microsporum felinum; < 1 µg/mL in assay [1]; 64 µg/mL (≈ 169 µM) in the assay on Candida albicans.
Take `CC(=O)OC(C(Oc1ccc(I)cc1)n1ccnc1)C(C)(C)C` (stereo not shown) [drawing 20]: in the assay on Candida cells, the “Action” value is “+ (trace action = < 40% survivors on 6th day after infection)”.
Same read-out and setting: to `CC(=O)OC(C(Oc1ccc(Br)cc1)n1ccnc1)C(C)(C)C` (stereo not shown) [drawing 16] belongs “++ (weak action = ≥ 40% survivors on the 6th day after infection)”.
Consider `CC(C)(C)C(O)C(Oc1cccc(Cl)c1)n1ccnc1` (stereo not shown) [drawing 4], for which the MIC is > 64 µg/mL with Penicillium commune, 64 µg/mL (≈ 217 µM) in assay [1] and 32 µg/mL (≈ 109 µM) in the assay on Candida albicans.
Regarding `CC(=O)OC(C(Oc1ccc(I)cc1)n1ccnc1)C(C)(C)C` (stereo not shown) [drawing 10], the MIC in the assay with Aspergillus niger was 64 µg/mL (≈ 149 µM); with Penicillium commune, 64 µg/mL (≈ 149 µM); in the assay on Microsporum felinum, 32 µg/mL (≈ 74.7 µM); in assay [1] it was 4 µg/mL (≈ 9.34 µM); in the assay on Candida albicans it was 32 µg/mL (≈ 74.7 µM).
Consider `CC(C)(C)C(O)C(Oc1cccc(Cl)c1)n1ccnc1` (stereo not shown) [drawing 13], for which the “Action” value in the assay with Candida cells is on record as “+ (trace action = < 40% survivors on 6th day after infection)”.
